# How the values were obtained:
# [1] = molecular target: hAR (Homo sapiens, UniProt P10275); test: cell-based
# [2] = In vitro genotoxicity assays
# Description: Compounds disclosed herein can be evaluated for efficacy and toxicity using known methods. For example, the toxicology of a particular compound, or of a subset of the compounds, sharing certain chemical moieties, may be established by determining in vitro toxicity towards a cell line, such as a bacterial or mammalian, including human, cell line. The results of such studies are often predictive of toxicity in animals, such as mammals, or more specifically, humans. Exemplary assays include bacterial reverse mutation assays (e.g., see Ames et al., Mutation Research 31: 347-364 (1975); Green et al., Mutation Research 38: 3-32 (1976); and Maron et al., Mutation Research 113: 173-215 (1983), cytological methods for detecting chemical mutagens (Evans, Chemical Mutagens, Principles and Methods for their Detection, Vol. 4 (Plenum Press, New York, N.Y. (1976))), chromosomal aberration assays (Galloway et al., Mutation Research 312(3): 241-261 (1994)), genotoxicity assays (Federal Register 61: 18198-18202 (1996) and Federal Register 62: 16026-16030 (1997)) and cytogenetic assays (Preston et al., Mutation Research 87: 143-188 (1981)).
# [3] = Toxicokinetics in cynomolgus monkeys (14-day oral study); format: in vivo, cynomolgus monkey
# Experimental: (§1) A study was performed to determine any potential toxicity and the toxicokinetic profile of Compound 102 when administered orally (via nasal gavage) to cynomolgus monkeys for at least 14 days. The cynomolgus monkey was chosen for this study as it is a non-rodent species that is commonly used for non-clinical toxicity evaluations. Use of the monkey model maximized the likelihood of identifying toxicological responses that may occur in humans. Ten experimentally naïve cynomolgus monkeys (5 male and 5 female) from about 2.5 to 3 years of age and weighing between about 2.3 to about 2.8 kg at Day −1 of the study were assigned to dose groups as shown in Table 6 below.
# (§2) All animals were dosed via nasal gavage once daily for 14 consecutive days. The first day of dosing was designated Day 1 for all animals. The animals were evaluated for clinical signs (evaluation of mortality and morbidity, twice daily), cage side observations and food consumption (once daily), body weight (Days 1, 8 and 14), physical examination (Day −5 and post dosing following the 13/24 hour toxicokinetic collection on Day 14), ophthalmic examination (prestudy and owing the Day 13/24 hour toxicokinetic collection on Day 14), and clinical pathology parameters (serum chemistry, hematology and coagulation on Days −3 and 14), urine samples were collected during necropsy (Day 15) for urinalysis. Blood samples were collected for toxicokinetic analysis at 1, 2, 4, 8, 12 and 24 hours post dose on Days 1 and 13.
# [4] = Metabolic stability in liver microsomes; format: in vitro ADME; details: rat liver microsomes, 37° C., pH 7.4, average of 2 experiments; read-out: half-life for degradation
# Experimental: Liver microsomes are subcellular fractions that contain drug-metabolizing enzymes, such as cytochrome P450, flavin monooxygenases and UDP glucuronyl transferases. […] Rat liver microsomes are a commonly used animal model for determination of drug metabolism (e.g., see Shayeganpour et al., Drug Metab Dispos 34 (1): 43-50 (2006)).
# The metabolism of Compound 102 was evaluated in rat liver microsomes. The metabolism was initiated by adding 25 μL of cofactor (100 mM of glucose 6-phosphate, 20 mM of NADP, […], and 63 mM of UDPGA) to wells containing 50 μL of 5 mg/mL of rat liver microsomes and 425 μL of 0.59 mM of Compound 102 made in 100 mM phosphate buffer (pH 7.4) at 37° C. At 0, 5, 10 and 20 minutes, a 60 μL aliquot of the sample was withdrawn. The unmetabolized test substance remaining in the sample was determined using HPLC and mass spectrometry and the half-life for degradation of the compound was calculated in minutes using curve fitting.
# [5] = tested on: cynomolgus monkeys; test: 14-day oral toxicity study in cynomolgus monkeys; format: in vivo, cynomolgus monkey
# Experimental: as §1, §2
# (§3) All ten animals were euthanized one day after the last dose. At termination, a full necropsy was conducted on all animals, and tissues were collected, preserved, processed and examined microscopically by an American College of Veterinary Pathologists (ACVP) certified pathologist.
# (§4) Vehicle was composed of PEG 400/Tween® 80/PVP-K30 (90/5/5, w/w/w). Appropriate amounts of Compound 102 were added to vehicle to prepare the suspension of test compound administered to the animals
# (§5) Blood samples for evaluation of serum chemistry, hematology and coagulation parameters were collected from all animals on Days −3 and 14. Urine samples were obtained by bladder puncture during necropsy. The animals were fasted for at east 8 hours prior to blood collections for serum chemistry. Serum chemistry parameters included alanine aminotransferase (ALT), total protein, aspartate aminotransferase (AST), alkaline phosphatase (ALP), gamma-glutamyltransferase (GGT), albumin, globulin, albumin/globulin ratio, lactate dehydrogenase (LD), glucose, total bilirubin, cholesterol, urea nitrogen (BUN), creatinine, triglycerides, sodium, calcium, potassium, phosphorus, chloride and carbon dioxide. Hematology parameters included red blood cell count, hemoglobin concentration, hematocrit, mean corpuscular volume (MCV), mean corpuscular hemoglobin concentration (MCHC), mean corpuscular hemoglobin (MCH), red cell distribution width, reticulocyte count, platelet count, mean platelet volume (MPV) and white blood cell count. Coagulation parameters included prothrombin time (PT) and activated partial thromboplastin time. Urinalysis parameters included color/character, specific gravity, pH, protein, glucose, ketones, bilirubin, occult blood and microscopics.
# [6] = 14-day oral toxicity study in cynomolgus monkeys; format: in vivo, cynomolgus monkey; details: cynomolgus monkey, in vivo, oral, cynomolgus monkeys, nasal gavage once daily 14 days
# Experimental: as §1, §2, §3, §4, §5
# Sequence of hAR (P10275 whole entry): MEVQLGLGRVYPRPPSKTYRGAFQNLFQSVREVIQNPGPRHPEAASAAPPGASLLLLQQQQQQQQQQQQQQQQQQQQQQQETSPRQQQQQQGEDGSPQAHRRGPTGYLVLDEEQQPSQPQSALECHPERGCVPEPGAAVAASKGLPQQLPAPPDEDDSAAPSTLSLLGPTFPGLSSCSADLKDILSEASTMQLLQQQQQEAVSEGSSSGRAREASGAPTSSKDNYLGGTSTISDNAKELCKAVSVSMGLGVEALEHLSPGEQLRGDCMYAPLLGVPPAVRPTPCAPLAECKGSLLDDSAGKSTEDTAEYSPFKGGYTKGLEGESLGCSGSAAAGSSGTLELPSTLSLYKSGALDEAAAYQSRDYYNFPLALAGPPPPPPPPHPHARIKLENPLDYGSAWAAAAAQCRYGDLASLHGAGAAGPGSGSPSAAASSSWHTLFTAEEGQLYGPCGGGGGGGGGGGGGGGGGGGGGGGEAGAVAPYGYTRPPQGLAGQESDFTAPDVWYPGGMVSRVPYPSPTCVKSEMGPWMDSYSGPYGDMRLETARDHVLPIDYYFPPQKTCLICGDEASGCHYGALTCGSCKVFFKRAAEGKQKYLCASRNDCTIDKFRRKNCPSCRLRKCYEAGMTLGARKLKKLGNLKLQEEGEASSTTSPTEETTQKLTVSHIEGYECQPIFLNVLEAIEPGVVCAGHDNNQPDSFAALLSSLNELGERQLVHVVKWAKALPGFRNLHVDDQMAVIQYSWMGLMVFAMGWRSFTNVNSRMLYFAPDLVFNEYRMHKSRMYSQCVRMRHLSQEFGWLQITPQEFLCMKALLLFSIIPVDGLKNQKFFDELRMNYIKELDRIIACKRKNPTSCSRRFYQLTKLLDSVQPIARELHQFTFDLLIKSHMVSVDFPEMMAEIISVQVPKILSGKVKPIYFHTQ
compound,measurement,setting,value
"N#Cc1ccc(N2CCC[C@@H]2[C@@H](O)C(F)(F)F)cc1C(F)(F)F [Compound 102, R,R-4-(2-(1-Hydroxyl-2,2,2-trifluoroethyl)-pyrrolidinyl)-2-trifluoromethyl-benzonitrile]",EC50,[1],3.1 nM
same,Emax,"[1]; MDA-MB-453, read-out: efficacy relative to dihydrotestosterone (DHT)",59%
same,genotoxicity,[2],negative
same,sex difference in toxicokinetic parameters,[3]; Day 1 and Day 13,no noticeable sex difference
same,effect of repeat administration on systemic exposure,[3]; Day 13 relative to Day 1,decreased on Day 13
same,systemic exposure versus dose,[3]; both sexes,increased with increasing dose up to 450 mg/kg
same,half-life at 0.5 mM,[4],44.5 min
same,platelet counts lower on Day 14 relative to Day −3,"[5]; 5, 50 and 150 mg/kg males and females and 450 mg/kg female",14% to 38%
same,serum cholesterol concentration,"[5]; Day 14, all dosed animals",decreased
same,prothrombin time longer than Day −3,"[5]; Day 14, all dosed animals except the 5 mg/kg female",1.8 to 3.5 s
same,microscopic findings (histopathology),[5]; all dose levels,no direct Compound 102-related microscopic findings
same,ophthalmic examinations,[5]; all dose levels,no Compound 102-related findings
same,urinalysis parameters,[5]; all dose levels,no Compound 102-related effects
same,body weight,[5]; all dosed animals relative to controls,dose-independent increase in body weight
same,gross necropsy findings,[5]; both sexes at 150 and 450 mg/kg,decreased thymus size and brown discoloration of the adrenals
same,NOEL,"[5]; cynomolgus monkeys, 14 days",not achieved
same,"mortality, clinical signs, food consumption, histologic effects","[5]; daily administration for 14 days, all dose levels","did not result in mortality, adverse clinical signs or changes in food consumption or histologic effects"
same,serum ALT and AST activity,"[5]; female animal dosed with 450 mg/kg, after 14 days",elevated
same,thymus histology,"[5]; males at 150 mg/kg and above, females at 50 mg/kg and above, considered secondary to stress",Minimal to mild lymphoid cortical depletion of the thymus
same,NOAEL at 14 days,"[6]; female, females",150 mg/kg
same,NOAEL at 14 days,"[6]; male, males",450 mg/kg

# Reference: patent US11358931B2, “Selective androgen receptor modulators (SARMs) and uses thereof” (priority 2007, dated 2022)
